Patent US6958318B2, “Recombinant bacterial cells for delivery of PNP to tumor cells” (The UAB Research Foundation, priority 1993, dated 2005)
Several values for one entry are separate records, joined by “and”; a condition that tells them apart may be missing. Equal values may be shown once.

Assays:
[1] = literature; cited from earlier work
E. coli PNP = E. coli PNP (Escherichia coli, UniProt P0ABP8)
Mel-1 cells = assay: Wild type melanoma cell viability; type: cell-based, human; details: concentrations as high as 50 μg/ml, five days
HEp-2 cells = assay: Toxicity to HEp-2 cells; type: cell-based
PNP transduced tumors = type: in vivo; details: 67 mg/kg ip, qd×3 d
Lewis Lung tumors = Lewis Lung tumors treated with recombinant E. coli and MeP-dR
D54 glioma tumors = assay: D54 tumors of mixed wild-type and transduced cells (80 to 20); details: in vivo
Mel-1 melanoma cells = assay: Killing of Mel-1 cells transfected with Tyr-PNP or SV-PNP; type: cell-based, human; details: 30 μg/ml, day 6
Excerpt: (§1) To eliminate possible toxicity associated with the non-hydrolyzable cationic lipid component of the LipofectinJ, an alternative liposome transfection vehicle was used in the killing experiments. A liposome vehicle consisting of a 1:1 (weight/weight) mixture of the cationic lipid DOTAP (1,2-dioleoyloxy-3-(trimethylammonium)-propane) and the neutral lipid DOPE (dioleoyl-phosphatidylethanolamine) (Avanti Polar Lipids) display transfection properties similar to LipofectinJ, but with less toxicity (data not shown). DOTAP/DOPE liposomes were prepared by mixing 0.5 mg of DOTAP and 0.5 mg of DOPE and evaporating the chloroform solvent. Following the addition of 500 μl of cyclohexane, the mixture was placed on dry ice and lyophilized. One ml of sterile water was added to the powdered lipids and the solution was vortexed every 5 minutes for 30 minutes. T-84 or Mel-1 cells were seeded at 30% confluency in 24-well plates and allowed to grow overnight. […]
(§2) In cells that received the PNP or control plasmids, the media was changed two days after transfection and MeP-dR (6-methylpurine-deoxyriboside) added to the appropriate wells to a final concentration of 30 μg/ml. […] Two days later (day 6), the cells were washed once with PBS, resuspended, and counted in a 20% solution of trypan blue reagent (Trypan Blue Stain 0.4%, Gibco-BRL, Gaithersburg, Md.) using a hemacytometer. […]

[2] = Stability under tissue culture conditions (HPLC of supernatants); details: HPLC analysis of supernatants
[3] = tested on: T-84 colon carcinoma cells; assay: Killing of T-84 cells transfected with SV-PNP (DOTAP/DOPE); type: cell-based, human; details: 30 μg/ml, day 6
Excerpt: as §1, §2

[4] = Systemically administered dose response (toxicity) in mice; type: in vivo
Protocol: The formula of Freireich et al., Cancer Chemother. Rep., 50:219-244, (1966) can be used to determine the maximum tolerated dose of substrate for a human subject. […] This amount or slightly less should result in maximal effectiveness of tumor cell killing in humans without killing the subject. This standard of effectiveness is accepted in the field of cancer therapy. However, more preferred is a range of from about 10% to 1% of the maximum tolerated dosage (for example, 7.5 mg/m^2-0.75 mg/m^2). Furthermore, it is understood that modes of administration that permit the substrate to remain localized at or near the site of the tumor will be effective at lower doses than systemically administered substrates.

[5] = tested on: T-84 colon carcinoma cells; assay: Toxicity of MeP and MeP-dR in untransfected T-84 cells; type: cell-based, human; details: 5 days
Protocol: T-84 colon carcinoma cells were grown in Dulbecco's modified Eagle medium containing F12 nutrient medium (DMEM/F12) (GIBCO/BRL, Gaithersburg, Md.) in 6 well trays to a density of approximately […] (−20% confluency).
Untransfected T-84 colon carcinoma cells were treated with increasing concentrations of either MeP-dR or MeP. After 5 days the cells were removed from each well and the number of dye excluding cells were determined with the aid of a hemacytometer. Cells were studied both at passage 48 (p. 48) and passage 61 (p. 61). MeP was obtained from Sigma Chemical Company (St. Louis, Mo.). MeP-dR was synthesized by standard methods as described (J. A. Montgomery and K. Howson, J. Med. Chem., 11:48-52 (1968)). The nucleoside and base were dissolved in serum free DMEM/F12 at a concentration of 1 mg/ml and added directly to 1 ml DMEM/F12 with 10% fetal bovine serum at the concentrations described below in order to cover 1-2×10^5 cells/well.
Initial cytopathic effects due to MeP were observed within 24 hours (for example, rounding of cells, with some cells detaching from plate). Viable cells were counted 5 days following addition of drug. […] Trypan blue exclusion was used to confirm viability in cells retaining recognizable structure at all concentrations studied. […] If the toxicity of MeP-dR is due to very low levels of liberation of MeP by human PNP, then combination with selective inhibitors of human PNP could prevent this toxicity.

[6] = 67 mg/kg, IP Qd×3d plus recombinant E. coli

Chain of E. coli PNP (P0ABP8 2-239): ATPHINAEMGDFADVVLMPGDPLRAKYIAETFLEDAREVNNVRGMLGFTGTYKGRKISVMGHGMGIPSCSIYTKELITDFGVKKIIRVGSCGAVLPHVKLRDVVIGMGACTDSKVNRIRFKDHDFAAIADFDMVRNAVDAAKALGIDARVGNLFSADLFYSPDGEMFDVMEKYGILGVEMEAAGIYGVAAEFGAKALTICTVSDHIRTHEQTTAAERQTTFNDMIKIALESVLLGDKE

Cc1ncnc2c1ncn2[C@H]1C[C@H](O)[C@@H](CO)O1 [MeP-dR, 9-(β-D-2-deoxyerythropentofuranosyl)-6-methylpurine]
Toxicity of prodrug relative to its purine analog [1]: much less toxic than their respective purine analogs
Km (E. coli PNP): 68 µM and 107 µM
Effect on Mel-1 cells (Mel-1 cells): unaffected
Fold less toxic than 6-methylpurine (MeP) (HEp-2 cells): 20 fold
Effect on very large pre-existing PNP transduced tumors (approximately 1 gram) (PNP transduced tumors): impressive regression
Delay of tumor growth (Lewis Lung tumors; 33.5 mg/kg once a day for three days plus recombinant E. coli): approximately 42%
Host toxicity (Lewis Lung tumors; 33.5 mg/kg plus recombinant E. coli): without host toxicity
Anti-tumor effect (Lewis Lung tumors; [6]): anti-tumor effects were again observed
Host toxicity (Lewis Lung tumors; [6]): toxic, with several deaths
Activity against tumors of wild-type and transduced cells at 80 to 20 (D54 glioma tumors): less active
Killing of Mel-1 cells transfected with SV-PNP (Mel-1 melanoma cells): susceptible to killing
Killing of Mel-1 cells transfected with Tyr-PNP (Mel-1 melanoma cells): susceptible to killing
Stability under tissue culture conditions [2]: stable
Killing of T-84 cells transfected with SV-PNP [3]: susceptible to killing
Toxicity in mice ([4]; 25 mg per kg per day for 9 days): some toxicity but no lethality
Human dosage (maximum tolerated dose) by formula of Freireich ([4]; 25 mg/kg×3): 75 mg/m^2
Toxicity to cells that were not transfected ([5]; 160 μM): minimally toxic
Cells killed ([5]; 200 and 400 μM): less than half of the cells were killed
Cell death ([5]; lower concentrations): did not cause any appreciable cell death
